One assay concerns the target HCoV-229E Mpro (Human coronavirus 229E, UniProt P0C6X1). Briefly: HCoV-229E Mpro enzymatic inhibition assay (fluorescence). It counts as biochemical. The protocol:
(§1) The hCoV Mpro are cloned, expressed in E. coli and purified by WuXi AppTec Co., Ltd. The substrate are synthesized by Genscript Biotech.
(§2) Compounds are 3 fold serially diluted for 10 doses and added to an assay plate (384w format) using ECHO, in duplicate wells. The test concentration of test compounds is defined by sponsor. […] For no inhibition control (ZPE, zero percent effect), DMSO is added.
(§3) 25 μL of Mpro proteins are added to the assay plates containing compounds, respectively, using Multidrop. The compounds and Mpro proteins are pre-incubated at room temperature for 30 min. Then 5 µL of Mpro substrates are added to the related assay plates, respectively. Each activity testing point has a relevant background control to normalize the fluorescence interference of compound.
(§4) After 60 min incubation at 30° C., the fluorescence signal (RFU) is detected using a microplate reader M2e (SpectraMax) at Ex/Em=340 nm/490 nm.
(§5) The inhibition activity is calculated using the formula below, IC50 values will be calculated using the Inhibition % data.
(§6) Inhibition %=[(CPD−BGCPD)−(ZPE−BGZPE)/(HPE−BGHPE)−(ZPE−BGZPE)]×[…] • CPD: Signal of test compounds wells, containing compound+enzyme+substrate. • ZPE: Average of signals of zero percent effective control wells, containing enzyme+substrate, no compound. • HPE: Average of signals of hundred percent effect control wells, containing GC376+enzyme+substrate. • BG: Compound background control wells, containing compound+substrate, no enzyme
(§7) IC50 values of compounds are calculated with the GraphPad Prism software using the nonlinear regression model of log(inhibitor) vs. response—Variable slope (four parameters).

Another assay addresses SARS-CoV-1 Mpro (Severe acute respiratory syndrome coronavirus, UniProt P0C6X7). Briefly: biochemical.
For another assay, the target named is HCoV-HKU1 Mpro (Human coronavirus HKU1, UniProt P0C6X2). As to the kind of experiment: HCoV-HKU1 Mpro enzymatic inhibition assay (fluorescence). The class given is biochemical. The protocol: as §1, §2, §3, §4, §5, §6, §7
A further assay addresses SARS-CoV-2 Mpro (Severe acute respiratory syndrome coronavirus 2, UniProt P0DTD1). Briefly: SARS-CoV-2 Mpro enzymatic inhibition assay (fluorescence). The class given is biochemical. The protocol: as §1
Compounds are 3 fold serially diluted for 10 doses and added to an assay plate (384w format) using ECHO, in duplicate wells. The test concentration of test compounds is defined by sponsor.
25 μL of Mpro proteins are added to the assay plates containing compounds, respectively, using Multidrop. The compounds and Mpro proteins are pre-incubated at room temperature for 30 min. Then 5 µL of Mpro substrates are added to the related assay plates, respectively.
as §4, §5, §7

In a further assay the target is HCoV-OC43 Mpro (Human coronavirus OC43, UniProt P0C6X6). Briefly: HCoV-OC43 Mpro enzymatic inhibition assay (fluorescence). The class given is biochemical. How it is done: as §1, §2, §3, §4, §5, §6, §7
The target of a further assay is MERS Mpro (Middle East respiratory syndrome-related coronavirus, UniProt K9N7C7). As to the kind of experiment: biochemical. Details: species or system MERS-CoV.
A further assay concerns the target HCoV-NL63 Mpro (Human coronavirus NL63, UniProt P0C6X5). As to the kind of experiment: HCoV-NL63 Mpro enzymatic inhibition assay (fluorescence). The class given is biochemical. The protocol:
as §1, §2, §3, §4, §5, §6, §7

[1] abbreviates: mean, 25 nM protein, 25 μM substrate, 30 min pre-incubation, 60 min at 30° C., read-out: Mpro_SARS-CoV-2 mean IC50.

Read-outs that look alike come from different tables or passages of the source.

Sequence of MERS Mpro (K9N7C7 3248-3553 limits assumed): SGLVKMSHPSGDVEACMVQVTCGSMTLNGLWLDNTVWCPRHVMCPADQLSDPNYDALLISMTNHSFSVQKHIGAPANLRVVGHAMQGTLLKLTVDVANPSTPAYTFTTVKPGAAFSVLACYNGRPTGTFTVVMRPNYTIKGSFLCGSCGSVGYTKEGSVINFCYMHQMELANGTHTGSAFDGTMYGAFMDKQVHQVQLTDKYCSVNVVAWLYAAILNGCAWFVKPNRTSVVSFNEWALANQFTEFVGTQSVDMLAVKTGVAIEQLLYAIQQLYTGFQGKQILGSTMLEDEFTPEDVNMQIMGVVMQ
Sequence of HCoV-NL63 Mpro (P0C6X5 2940-3242 limits assumed): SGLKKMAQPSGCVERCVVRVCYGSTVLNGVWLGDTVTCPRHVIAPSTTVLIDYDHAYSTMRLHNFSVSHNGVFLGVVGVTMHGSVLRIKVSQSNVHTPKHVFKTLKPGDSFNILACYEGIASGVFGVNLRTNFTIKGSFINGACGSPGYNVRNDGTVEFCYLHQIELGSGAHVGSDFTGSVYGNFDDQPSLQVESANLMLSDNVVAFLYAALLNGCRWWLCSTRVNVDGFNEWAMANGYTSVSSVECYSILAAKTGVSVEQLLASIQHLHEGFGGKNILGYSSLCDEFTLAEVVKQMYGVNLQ
Sequence of HCoV-HKU1 Mpro (P0C6X2 3335-3637 limits assumed): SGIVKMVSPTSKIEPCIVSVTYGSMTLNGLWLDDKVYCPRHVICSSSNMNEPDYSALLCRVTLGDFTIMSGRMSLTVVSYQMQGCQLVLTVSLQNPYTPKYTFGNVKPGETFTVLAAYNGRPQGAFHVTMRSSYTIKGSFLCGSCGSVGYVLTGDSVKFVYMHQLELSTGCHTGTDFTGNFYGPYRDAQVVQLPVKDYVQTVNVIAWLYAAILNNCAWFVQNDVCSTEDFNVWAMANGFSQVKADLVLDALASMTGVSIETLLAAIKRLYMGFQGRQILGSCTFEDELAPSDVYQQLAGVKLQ
Sequence of HCoV-OC43 Mpro (P0C6X6 3247-3549 limits assumed): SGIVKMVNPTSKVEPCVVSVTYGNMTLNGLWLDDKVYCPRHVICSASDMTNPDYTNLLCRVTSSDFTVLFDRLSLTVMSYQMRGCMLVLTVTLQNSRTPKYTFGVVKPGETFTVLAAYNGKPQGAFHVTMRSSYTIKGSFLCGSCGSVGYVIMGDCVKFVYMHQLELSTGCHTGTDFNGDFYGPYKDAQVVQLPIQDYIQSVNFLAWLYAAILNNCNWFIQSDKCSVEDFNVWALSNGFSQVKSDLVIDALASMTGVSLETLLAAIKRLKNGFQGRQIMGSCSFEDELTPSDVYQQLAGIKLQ
Sequence of HCoV-229E Mpro (P0C6X1 2966-3267 limits assumed): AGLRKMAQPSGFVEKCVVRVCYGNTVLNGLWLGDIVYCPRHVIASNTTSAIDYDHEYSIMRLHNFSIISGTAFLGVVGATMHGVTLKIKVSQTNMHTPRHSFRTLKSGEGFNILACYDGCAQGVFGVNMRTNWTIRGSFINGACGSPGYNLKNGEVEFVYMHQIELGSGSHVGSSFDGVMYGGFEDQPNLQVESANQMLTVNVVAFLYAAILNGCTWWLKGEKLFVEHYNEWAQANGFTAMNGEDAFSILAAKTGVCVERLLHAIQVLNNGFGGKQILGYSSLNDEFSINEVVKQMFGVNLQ

A word on the IC50: it is the concentration that gives 50% inhibition. With `O=C[C@H](C[C@@H]1CCNC1=O)NC(=O)[C@@H]1C[C@@H]2CCCC[C@@H]2N1C(=O)c1cc2ccccc2[nH]1` [Compound 113, (2S,3aS,7aS)-1-(1H-Indole-2-carbonyl)-N—((S)-1-oxo-3-((S)-2-oxopyrrolidin-3-yl)propan-2-yl)octahydro-1H-indole-2-carboxamide], the IC50 is 0.0332 µM on HCoV-229E Mpro; 0.339 µM against SARS-CoV-1 Mpro; 0.0284 µM on HCoV-HKU1 Mpro; 0.0916 µM at SARS-CoV-2 Mpro; 0.0793 µM on HCoV-OC43 Mpro; 0.581 µM on MERS Mpro. In addition, on HCoV-NL63 Mpro, the IC50 was 0.0357 µM.

Regarding `O=C[C@H](C[C@@H]1CCNC1=O)NC(=O)[C@@H]1CC2(CC2)CN1C(=O)CC1CCCCC1` [Compound 126, (S)-5-(2-Cyclohexylacetyl)-N—((S)-1-oxo-3-((S)-2-oxopyrrolidin-3-yl)propan-2-yl)-5-azaspiro[2.4]heptane-6-carboxamide], the IC50 on HCoV-229E Mpro was determined as 0.0563 µM; at SARS-CoV-1 Mpro, 0.0845 µM; against HCoV-HKU1 Mpro, 0.0384 µM; on SARS-CoV-2 Mpro, 0.231 µM; against HCoV-OC43 Mpro, 0.112 µM; at MERS Mpro it was 0.358 µM. On HCoV-NL63 Mpro, 0.0977 µM corresponded to half-maximal inhibition (IC50).

As for `C[C@@H]1C[C@@H](C(=O)N[C@H](C=O)C[C@@H]2CCNC2=O)N(C(=O)c2cc3ccccc3[nH]2)C1` [Compound 107, (2S,4R)-1-(1H-Indole-2-carbonyl)-4-methyl-N—((S)-1-oxo-3-((S)-2-oxopyrrolidin-3-yl)propan-2-yl)pyrrolidine-2-carboxamide], the IC50 worked out at 0.0442 µM against HCoV-229E Mpro; 0.186 µM against SARS-CoV-1 Mpro; 0.0465 µM on HCoV-HKU1 Mpro; 0.077 µM on SARS-CoV-2 Mpro; 0.195 µM against HCoV-OC43 Mpro; 0.522 µM against MERS Mpro. The same compound showed an IC50 on HCoV-NL63 Mpro of 0.062 µM.

With `CC1(C)[C@@H]2[C@@H](C(=O)N[C@H](C=O)C[C@@H]3CCNC3=O)N(C(=O)c3cc4ccc(Cl)c(F)c4[nH]3)C[C@@H]21` [Compound 21, (1R,2S,5S)-3-(6-chloro-7-fluoro-1H-indole-2-carbonyl)-6,6-dimethyl-N—((S)-1-oxo-3-((S)-2-oxopyrrolidin-3-yl)propan-2-yl)-3-azabicyclo[3.1.0]hexane-2-carboxamide], the IC50 against HCoV-229E Mpro came out at 0.0222 µM; against SARS-CoV-1 Mpro it was 0.0276 µM; on HCoV-HKU1 Mpro, 0.038 µM; against SARS-CoV-2 Mpro, 0.0157 µM; on HCoV-OC43 Mpro, 0.0594 µM; against MERS Mpro, 0.234 µM. The compound also had an IC50 on HCoV-NL63 Mpro of 0.0577 µM.

Consider `CC1(C)[C@@H]2[C@@H](C(=O)N[C@H](C=O)C[C@@H]3CCNC3=O)N(C(=O)c3cc4cc5c(cc4[nH]3)OCO5)C[C@@H]21` [Compound 27, (1R,2S,5S)-3-(5H-[1,3]dioxolo[4,5-f]indole-6-carbonyl)-6,6-dimethyl-N—((S)-1-oxo-3-((S)-2-oxopyrrolidin-3-yl)propan-2-yl)-3-azabicyclo[3.1.0]hexane-2-carboxamide], for which the IC50 on HCoV-229E Mpro was 0.0547 µM; against SARS-CoV-1 Mpro, 0.0528 µM; against HCoV-HKU1 Mpro, 0.049 µM; against SARS-CoV-2 Mpro, 0.0172 µM; at HCoV-OC43 Mpro it was 0.0892 µM; against MERS Mpro, 0.466 µM. 0.0828 µM corresponded to half-maximal inhibition at HCoV-NL63 Mpro (IC50).

Regarding `CCc1cccc2[nH]c(C(=O)N3C[C@H]4[C@@H]([C@H]3C(=O)N[C@H](C=O)C[C@@H]3CCNC3=O)C4(C)C)cc12` [Compound 14, (1R,2S,5S)-3-(4-ethyl-1H-indole-2-carbonyl)-6,6-dimethyl-N—((S)-1-oxo-3-((S)-2-oxopyrrolidin-3-yl)propan-2-yl)-3-azabicyclo[3.1.0]hexane-2-carboxamide], the IC50 turned out to be 0.0396 µM against HCoV-229E Mpro; 0.052 µM at SARS-CoV-1 Mpro; 0.0222 µM against HCoV-HKU1 Mpro; 0.0145 µM on SARS-CoV-2 Mpro; 0.0394 µM on HCoV-OC43 Mpro; 0.322 µM against MERS Mpro. This compound yielded an IC50 against HCoV-NL63 Mpro of 0.0493 µM.

On to `CC(C)c1ccc(F)c2[nH]c(C(=O)N3C[C@H]4[C@@H]([C@H]3C(=O)N[C@H](C=O)C[C@@H]3CCNC3=O)C4(C)C)cc12` [Compound 39, (1R,2S,5S)-3-(7-fluoro-4-isopropyl-1H-indole-2-carbonyl)-6,6-dimethyl-N—((S)-1-oxo-3-((S)-2-oxopyrrolidin-3-yl)propan-2-yl)-3-azabicyclo[3.1.0]hexane-2-carboxamide], for which the IC50 amounted to 0.0264 µM at HCoV-229E Mpro; 0.03 µM against SARS-CoV-1 Mpro; 0.016 µM against HCoV-HKU1 Mpro; 0.0216 µM at SARS-CoV-2 Mpro; 0.0351 µM on HCoV-OC43 Mpro; 0.208 µM against MERS Mpro. Further, the IC50 against HCoV-NL63 Mpro worked out at 0.04 µM.

As to `CC1(C)[C@@H]2[C@@H](C(=O)N[C@H](C=O)C[C@@H]3CCNC3=O)N(C(=O)c3cc4sccc4[nH]3)C[C@@H]21` [Compound 30, (1R,2S,5S)-6,6-dimethyl-N—((S)-1-oxo-3-((S)-2-oxopyrrolidin-3-yl)propan-2-yl)-3-(4H-thieno[3,2-b]pyrrole-5-carbonyl)-3-azabicyclo[3.1.0]hexane-2-carboxamide], the IC50 was 0.0245 µM against HCoV-229E Mpro; 0.0511 µM against SARS-CoV-1 Mpro; 0.026 µM on HCoV-HKU1 Mpro; 0.0186 µM on SARS-CoV-2 Mpro; 0.0438 µM against HCoV-OC43 Mpro; 0.239 µM against MERS Mpro. Moreover, on HCoV-NL63 Mpro, the IC50 stood at 0.0497 µM.

For `COc1cccc2cc(C(=O)N3C[C@H]4[C@@H]([C@H]3C(=O)N[C@H](C=O)C[C@@H]3CCNC3=O)C4(C)C)[nH]c12` [Compound 91, (1R,2S,5S)-3-(7-Methoxy-1H-indole-2-carbonyl)-6,6-dimethyl-N—((S)-1-oxo-3-((S)-2-oxopyrrolidin-3-yl)propan-2-yl)-3-azabicyclo[3.1.0]hexane-2-carboxamide], the IC50 at HCoV-229E Mpro is 0.0929 µM; against SARS-CoV-1 Mpro, 0.0833 µM; at HCoV-HKU1 Mpro, 0.0611 µM; on SARS-CoV-2 Mpro (setting [1]) it was 0.0439 µM; against HCoV-OC43 Mpro, 0.11 µM; on MERS Mpro, 0.396 µM. The same compound showed an IC50 against HCoV-NL63 Mpro of 0.215 µM.

`CC1(C)[C@@H]2[C@@H](C(=O)N[C@H](C=O)C[C@@H]3CCNC3=O)N(C(=O)c3cc4cccc(C(F)(F)F)c4[nH]3)C[C@@H]21` [Compound 29, (1R,2S,5S)-6,6-dimethyl-N—((S)-1-oxo-3-((S)-2-oxopyrrolidin-3-yl)propan-2-yl)-3-(7-(trifluoromethyl)-1H-indole-2-carbonyl)-3-azabicyclo[3.1.0]hexane-2-carboxamide]: the IC50 against HCoV-229E Mpro was found to be 0.0474 µM; at SARS-CoV-1 Mpro it was 0.0352 µM; against HCoV-HKU1 Mpro, 0.0535 µM; against SARS-CoV-2 Mpro, 0.0183 µM; on HCoV-OC43 Mpro it was 0.087 µM; at MERS Mpro, 0.296 µM. The same compound displayed an IC50 on HCoV-NL63 Mpro of 0.0939 µM.

Take `CC1(C)[C@@H]2[C@@H](C(=O)N[C@H](C#N)C[C@@H]3CCNC3=O)N(C(=O)C3(c4cccc(Cl)c4)CC3)C[C@@H]21` [Compound 123, (1R,2S,5S)-3-(1-(3-Chlorophenyl)cyclopropanecarbonyl)-N—((S)-1-cyano-2-((S)-2-oxopyrrolidin-3-yl)ethyl)-6,6-dimethyl-3-azabicyclo[3.1.0]hexane-2-carboxamide]: the IC50 at HCoV-229E Mpro stood at 0.459 µM; against SARS-CoV-1 Mpro, 0.224 µM; against HCoV-HKU1 Mpro, 0.185 µM; on SARS-CoV-2 Mpro (setting [1]) it was 0.178 µM; against HCoV-OC43 Mpro, 0.419 µM; against MERS Mpro, 1.18 µM. Besides, the IC50 at HCoV-NL63 Mpro turned out to be 2.11 µM.

As to `Cc1cc(Cl)cc2cc(C(=O)N3C[C@H]4[C@@H]([C@H]3C(=O)N[C@H](C=O)C[C@@H]3CCNC3=O)C4(C)C)[nH]c12` [Compound 69, (1R,2S,5S)-3-(5-Chloro-7-methyl-1H-indole-2-carbonyl)-6,6-dimethyl-N—((S)-1-oxo-3-((S)-2-oxopyrrolidin-3-yl)propan-2-yl)-3-azabicyclo[3.1.0]hexane-2-carboxamide], the IC50 against HCoV-229E Mpro worked out at 0.0505 µM; against SARS-CoV-1 Mpro, 0.0488 µM; at HCoV-HKU1 Mpro it was 0.0326 µM; against SARS-CoV-2 Mpro, 0.0292 µM; against HCoV-OC43 Mpro, 0.0798 µM; at MERS Mpro it was 0.476 µM. Moreover, the IC50 on HCoV-NL63 Mpro came to 0.0807 µM.
